EC50 and melting point data for 27 molecules are collected here from US8680096B2, “Diphenyl-pyrazolopyridine derivatives, preparation thereof, and use thereof as nuclear receptor not modulators” (Sanofi-Aventis, priority 2009, dated 2014).

T1 sequence (Q06219 whole entry): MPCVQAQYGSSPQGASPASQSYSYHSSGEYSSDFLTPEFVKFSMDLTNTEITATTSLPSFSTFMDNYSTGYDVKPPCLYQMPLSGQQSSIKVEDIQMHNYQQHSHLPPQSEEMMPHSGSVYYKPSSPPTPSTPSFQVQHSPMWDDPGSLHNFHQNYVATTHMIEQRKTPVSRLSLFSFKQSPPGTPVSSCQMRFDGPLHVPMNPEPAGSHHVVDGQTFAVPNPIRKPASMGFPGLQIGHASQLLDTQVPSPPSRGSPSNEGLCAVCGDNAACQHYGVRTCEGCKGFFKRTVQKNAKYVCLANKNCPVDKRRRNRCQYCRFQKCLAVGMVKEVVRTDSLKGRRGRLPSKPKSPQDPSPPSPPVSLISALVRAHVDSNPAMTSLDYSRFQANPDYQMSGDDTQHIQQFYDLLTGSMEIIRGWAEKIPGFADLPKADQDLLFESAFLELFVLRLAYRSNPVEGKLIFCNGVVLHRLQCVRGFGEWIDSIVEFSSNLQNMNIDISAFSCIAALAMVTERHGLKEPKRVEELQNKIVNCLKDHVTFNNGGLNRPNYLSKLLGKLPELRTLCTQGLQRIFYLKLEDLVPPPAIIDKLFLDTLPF

The first data set addresses T1, murine Nurr1 receptor (Mus musculus, UniProt Q06219).
T1 construct: a cell line (N2A) endogenously expressing the murine Nurr1 receptor; host or cells: Neuro-2A (N2A) mouse neuroblastoma cells stably transfected with 8NBRE-luciferase
Put plainly: In vitro activity on N2A cells (8NBRE-luciferase reporter). Type of data set: cell-based. As to conditions: N2A cells endogenously expressing Nurr1, stably transfected with 8NBRE-luciferase; 24 hours incubation. The procedure:
Evaluation of the In Vitro Activity on N2A Cells
The activity of the compounds according to the invention was evaluated on a cell line (N2A) endogenously expressing the murine Nurr1 receptor and stably transfected with the NOT binding response element (NBRE) coupled to the luciferase reporter gene. The tests were performed according to the procedure described hereinbelow.
The cell line Neuro-2A is obtained from a standard commercial source (ATCC). The clone Neuro-2A was obtained from a spontaneous tumour originating from a strain of albino mice A by R. J Klebe et al. This line Neuro-2A is then stably transfected with 8NBRE-luciferase. The N2A-8NBRE cells are cultured to the point of confluence in 75 cm^2 culture flasks containing DMEM supplemented with 10% foetal calf serum, 4.5 g/L of glucose and 0.4 mg/ml of geneticin. After culturing for one week, the cells are recovered with 0.25% trypsin for 30 seconds and then resuspended in DMEM without phenol red, containing 4.5 g/L of glucose and 10% Hyclone defatted serum, and placed in white, transparent-base 96-well plates. The cells are deposited at a rate of 60 000 per well in 75 4, for 24 hours before adding the products. The products are applied in 25 4 and incubated for a further 24 hours. On the day of measurement, an equivalent volume (100 4) of Steadylite is added to each well, and the wells are then left for 30 minutes to obtain complete lysis of the cells and maximum production of the signal. The plates are then measured in a microplate luminescence counter, after having been sealed with an adhesive film. The products are prepared in the form of a 10^−2 M stock solution, and then diluted in 100% of DMSO. Each concentration of product is prediluted in culture medium before incubation with the cells thus containing 0.625% final of DMSO.
Background: In a reporter assay the amount or activity of a reporter protein is the signal.
The term EC50 denotes the concentration that produces a half-maximal response. High values mean lower potency in that assay, low ones higher potency in that assay. For `CNC(=O)c1cccc(-c2ccn3nc(-c4ccc(Cl)cc4)cc3c2)c1` [Compound 4, 3-[2-(4-Chlorophenyl)pyrazolo[1,5-a]pyridin-5-yl]-N-methylbenzamide], the EC50 is 2 nM. As to `O=C(c1cccc(-c2ccn3nc(-c4ccc(F)cc4)cc3c2)c1)N1CCCC1` [Compound 16, {3-[2-(4-Fluorophenyl)pyrazolo[1,5-c]pyridin-5-yl]phenyl}pyrrolidin-1-ylmethanone], the EC50 was found to be 326 nM. This EC50 is about 160-fold higher than that of the molecule before. In turn, `CNC(=O)c1ccc(-c2ccn3nc(-c4ccc(F)cc4)cc3c2)cc1F` [Compound 14, 2-Fluoro-4-[2-(4-fluorophenyl)pyrazolo[1,5-c]pyridin-5-yl]-N-methylbenzamide] yielded an EC50 of 125 nM. Molecule `CNC(=O)c1cccc(-c2ccn3nc(-c4ccc(F)cc4)cc3c2)c1C` [Compound 10, 3-[2-(4-Fluorophenyl)pyrazolo[1,5-a]pyridin-5-yl]-2,N-dimethylbenzamide] showed an EC50 of 6.6 nM. Compared with the last molecule, the EC50 is about 19-fold lower. For the molecule `NC(=O)c1cccc(-c2ccn3nc(-c4ccc(Cl)cc4)cc3c2)c1` [Compound 2, 3-[2-(4-Chlorophenyl)pyrazolo[1,5-a]pyridin-5-yl]benzamide], the EC50 stood at 45 nM. This EC50 lies about 6.8-fold higher than the previous one. Same read-out and setting: with `CNC(=O)c1cccc(-c2ccn3nc(-c4cc(F)cc(F)c4)cc3c2)c1` [Compound 26] the figure was 1.3 nM.

Test system in another data set: not given
Assay: not given
Details: not given
As usually defined, the melting point is the temperature of the solid-liquid transition. Molecule `O=C(NC1CC1)c1cccc(-c2ccn3nc(-c4ccc(F)cc4)cc3c2)c1` [Compound 15, N-Cyclopropyl-3-[2-(4-fluorophenyl)pyrazolo[1,5-a]pyridin-5-yl]-benzamide] gave a melting point of 179 to 181 °C. In turn, `CNC(=O)c1cccc(-c2ccn3nc(-c4ccc(C(F)(F)F)cc4)cc3c2)c1` [Compound 19, N-Methyl-3-[2-(4-trifluoromethylphenyl)pyrazolo[1,5-a]pyridin-5-yl]benzamide] showed a melting point of 220 to 222 °C. Still for that read-out and setting: with `CNC(=O)c1cccc(-c2ccn3nc(-c4cccc(F)c4)cc3c2)c1` [Compound 27, 3-[2-(3-Fluorophenyl)pyrazolo[1,5-a]pyridin-5-yl]-N-methylbenzamide] the figure was 204 to 206 °C. Same read-out and setting: with `CNC(=O)c1ccc(Cl)c(-c2ccn3nc(-c4ccc(F)cc4)cc3c2)c1` [Compound 12, 4-Chloro-3-[2-(4-fluorophenyl)pyrazolo[1,5-a]pyridin-5-yl]-N-methylbenzamide] the figure was 188 to 190 °C; with `CNC(=O)c1cccc(-c2ccn3nc(-c4ccc(C#N)cc4)cc3c2)c1` [Compound 31, 3-[2-(4-Cyanophenyl)pyrazolo[1,5-a]pyridin-5-yl]-N-methylbenzamide], 252 to 254 °C. Regarding `COC(=O)c1cccc(-c2ccn3nc(-c4ccc(F)cc4)cc3c2)c1` [Compound 5, Methyl 3-[2-(4-fluorophenyl)pyrazolo[1,5-a]pyridin-5-yl]benzoate], the melting point is 162 to 164 °C. For the molecule `CNC(=O)c1cccc(-c2ccn3nc(-c4ccccc4F)cc3c2)c1` [Compound 18, 3-[2-(2-Fluorophenyl)pyrazolo[1,5-a]pyridin-5-yl]-N-methylbenzamide], the melting point was in the range of 195 to 197 °C. Molecule `CC(C)NC(=O)c1cccc(-c2ccn3nc(-c4ccc(F)cc4)cc3c2)c1` [Compound 7, 3-[2-(4-Fluorophenyl)pyrazolo[1,5-a]pyridin-5-yl]-N-isopropylbenzamide] displayed a melting point of 210 to 212 °C.

With `O=C(c1cccc(-c2ccn3nc(-c4ccc(F)cc4)cc3c2)c1)N1CCC(O)C1` (centres unmarked) [Compound 22, {3-[2-(4-Fluorophenyl)pyrazolo[1,5-a]pyridin-5-yl]phenyl}-(3-hydroxy-pyrrolidin-1-yl)methanone], the melting point was 173 to 175 °C. With `CNC(=O)c1cccc(-c2ccn3nc(-c4cccc(F)c4F)cc3c2)c1` [Compound 32, 3-[2-(2,3-Difluorophenyl)pyrazolo[1,5-a]pyridin-5-yl]-N-methylbenzamide], the melting point fell in the range of 214 to 216 °C.

Molecule `CNC(=O)c1cc(-c2ccn3nc(-c4ccc(F)cc4)cc3c2)ccc1Cl` [Compound 11, 2-Chloro-5-[2-(4-fluorophenyl)pyrazolo[1,5-a]pyridin-5-yl]-N-methylbenzamide] gave a melting point of 243 to 245 °C. Regarding `CNC(=O)c1cccc(-c2ccn3nc(-c4ccc(F)cc4)cc3c2)c1` [Compound 6, 3-[2-(4-Fluorophenyl)pyrazolo[1,5-a]pyridin-5-yl]-N-methylbenzamide], the melting point is 214 to 216 °C.

In the case of `CNC(=O)c1cccc(-c2ccn3nc(-c4ccc(C)cc4)cc3c2)c1` [Compound 28, N-Methyl-3-(2-p-tolylpyrazolo[1,5-a]pyridin-5-yl)benzamide], the melting point fell in the range of 204 to 206 °C.

The molecule `CNC(=O)c1cccc(-c2ccn3nc(-c4ccc(F)cc4)c(Cl)c3c2)c1` [Compound 34, 3-[3-Chloro-2-(4-fluorophenyl)pyrazolo[1,5-a]pyridin-5-yl]-N-methyl-benzamide] returned a melting point of 221 to 223 °C. On the same count and under the same terms, the value for `CNC(=O)c1ccc(C)c(-c2ccn3nc(-c4ccc(F)cc4)cc3c2)c1` [Compound 13, 3-[2-(4-Fluorophenyl)pyrazolo[1,5-a]pyridin-5-yl]-4,N-dimethylbenzamide] was 185 to 187 °C. Turning to `CNC(=O)c1cccc(-c2ccn3nc(-c4ccc(Cl)cc4)cc3c2)c1` [Compound 4, 3-[2-(4-Chlorophenyl)pyrazolo[1,5-a]pyridin-5-yl]-N-methylbenzamide], the melting point is 234 to 236 °C. Same read-out and setting: the value for `O=C(c1cccc(-c2ccn3nc(-c4ccc(F)cc4)cc3c2)c1)N1CCCC1` [Compound 16, {3-[2-(4-Fluorophenyl)pyrazolo[1,5-c]pyridin-5-yl]phenyl}pyrrolidin-1-ylmethanone] was 164 to 166 °C; that for `CNC(=O)c1cccc(-c2ccn3nc(-c4ccc(F)cc4F)cc3c2)c1` [Compound 23, 3-[2-(2,4-Difluorophenyl)pyrazolo[1,5-a]pyridin-5-yl]-N-methylbenzamide] was 210 to 212 °C.

As for `CNC(=O)c1ccc(-c2ccn3nc(-c4ccc(F)cc4)cc3c2)cc1` [Compound 20, 4-[2-(4-Fluorophenyl)pyrazolo[1,5-a]pyridin-5-yl]-N-methylbenzamide], the melting point fell in the range of 264 to 266 °C. As to `CNC(=O)c1cccc(-c2ccn3nc(-c4ccccc4C)cc3c2)c1` [Compound 33, N-Methyl-3-(2-o-tolylpyrazolo[1,5-a]pyridin-5-yl)benzamide], the melting point fell in the range of 129 to 131 °C.

In the case of `CNC(=O)c1ccc(-c2ccn3nc(-c4ccc(F)cc4)cc3c2)cc1F` [Compound 14, 2-Fluoro-4-[2-(4-fluorophenyl)pyrazolo[1,5-c]pyridin-5-yl]-N-methylbenzamide], the melting point lay within 227 to 229 °C.

`CNC(=O)c1cccc(-c2ccn3nc(-c4ccc(OC)cc4)cc3c2)c1` [Compound 29, 3-[2-(4-Methoxyphenyl)pyrazolo[1,5-a]pyridin-5-yl]-N-methylbenzamide] gave a melting point of 211 to 213 °C. Molecule `COC(=O)c1cccc(-c2ccn3nc(-c4ccc(Cl)cc4)cc3c2)c1` [Compound 1, Methyl 3-[2-(4-chlorophenyl)pyrazolo[1,5-a]pyridin-5-yl]benzoate] gave a melting point of 180 to 182 °C. In the case of `NC(=O)c1cccc(-c2ccn3nc(-c4ccc(Cl)cc4)cc3c2)c1` [Compound 2, 3-[2-(4-Chlorophenyl)pyrazolo[1,5-a]pyridin-5-yl]benzamide], the melting point was 283 to 285 °C. As to `CNC(=O)c1cccc(-c2ccn3nc(-c4cc(F)cc(F)c4)cc3c2)c1` [Compound 26], the melting point lay in the range of 230 to 232 °C. In turn, `CN(C)C(=O)c1cccc(-c2ccn3nc(-c4ccc(Cl)cc4)cc3c2)c1` [Compound 3, 3-[2-(4-Chlorophenyl)pyrazolo[1,5-a]pyridin-5-yl]-N,N-dimethyl-benzamide] had a melting point of 175 to 177 °C.
